We go through 16 compounds from patent US20220009914A1, “Analogs of Nitrofuran Antibiotics to Combat Resistance” (The Trustees of Indiana University, priority 2020, published 2022).

The test system of series [1] is FHs 74 Int small intestine cells. Briefly: in vitro. To be noted: for CC50: human, 48 h. How it is done:
(§1) Evaluating compound effects on the viability of human colon and small intestine cells. […] Evaluating compound effects on the viability of human colon and small intestine cells. Evaluation of compound cytotoxicities to FHC colon and FHs 74 Int small intestine cells were performed using Alamar Blue-based viability assays. […] FHs 74 Int cells were maintained in Hybri-care medium (ATCC 46-X) supplemented with 30 ng/mL recombinant epidermal growth factor (EGF) and 10% FBS (Midwest Scientific, USDAFBS).

Series [2] relates to Staphylococcus aureus strain Seattle 1945 (ATCC #25923). Briefly: bacterial proliferation assay, S. aureus. The format is cell-based. As to conditions: Staphylococcus aureus, ATCC25923; read-out: Bacterial Proliferation EC50 S. aureus. As for the experimental part:
(§2) All compounds were evaluated for inhibiting the proliferation of E. coli and each of the ESKAPE bacteria. Results presented represent the averages of EC50 values obtained from at least four replicates. Evaluating compounds for inhibition of bacterial cell proliferation.
(§3) Growth Media: E. coli were grown with LB medium and all ESKAPE bacteria were grown in Brain Heart Infusion (BHI) medium (Becton, Dickinson and Company), with all liquid cultures supplemented with 25 mg/L Ca^2+ and 12.5 mg/L Mg^2+ to mimic physiological free concentrations of these cations. A 10 mg/mL Ca^2+ stock solution was prepared by dissolving 1.84 g of CaCl2.2H2O in 50 mL of deionized water, and a 10 mg/mL Mg^2+ stock solution was prepared by dissolving 4.18 g of MgCl2.6H2O in 50 mL deionized water—filter sterilized using 0.2 μm cellulose-acetate filters. 2.5 mL of the sterile 10 mg/mL Ca^2+ stock and 1.25 mL of the sterile 10 mg/mL Mg^2+ stock solutions were added per 1 L of autoclaved LB or BHI media to obtain 25 mg/L Ca^2+ and 12.5 mg/L Mg^2+ ions, respectively.
(§4) General Assay Protocol: Stock bacterial cultures were streaked onto LB or BHI agar plates and grown overnight at 37° C. Fresh aliquots of cation supplemented media were inoculated with single bacterial colonies and the cultures were grown overnight at 37° C. with shaking (240 rpm). The following morning, cultures were diluted 10-fold into fresh media and grown at 37° C. until bacteria had reached mid-log phase growth (OD600˜0.4-0.6). The cultures were then diluted into fresh media to achieve final OD600 readings of 0.017. Aliquots of these diluted cultures (30 μL) were added to clear, flat-bottom 384-well polystyrene plates that were previously stamped with 0.5 μL of test compounds in 20 μL of media (yielding initial OD600=0.01 bacterial cultures). All compounds were tested in dose-response with concentration ranges during the proliferation assays from 100 μM to 46 nM (3-fold dilution series). A second set of baseline control plates were prepared analogously, but without any bacteria added, to correct for possible compound absorbance and/or precipitation. […] Plates were then read at 600 nm using a Molecular Devices SpectraMax Plus384 microplate reader. […] Results presented represent the averages of EC50 values obtained from at least four replicates.
(§5) Evaluating analogs for inhibiting the growth of E. coli and the ESKAPE bacteria. Analogs were initially tested for antibacterial efficacy against representative strains of antibiotic-sensitive E. coli and the ESKAPE bacteria. To determine compound efficacy, bacterial proliferation assays were carried out in liquid media culture supplemented with physiological concentrations of free calcium and magnesium cations. For these assays, bacterial cultures (OD600=0.01) were exposed to test compounds in 8-point, 3-fold dilution series (100 μM to 46 nM concentration range), in 384-well plates. After addition of compounds to cultures, the plates were sealed with Breathe-Easy gas permeable membranes and allowed to grow to mid-log phase (OD600˜0.4-0.6), whereupon final OD600 readings were taken to assess for bacterial growth and inhibition.

Series [3] concerns FHC colon cells. Briefly: in vitro. To be noted: for CC50: human, 48 h. As for the experimental part: as §1
Series [4] concerns Enterococcus faecium strain NCTC 7171 (ATCC #19434). Briefly: bacterial proliferation assay, E. faecium. The series is classed as cell-based. To be noted: read-out: Bacterial Proliferation EC50 E. faecium. How it is done:
as §2, §3, §4, §5

Series [5] concerns E. coli and the ESKAPE bacteria. Briefly: bacterial proliferation assays, whole panel (results in words). The series is classed as cell-based. As for the experimental part: as §2, §3
General Assay Protocol: Stock bacterial cultures were streaked onto LB or BHI agar plates and grown overnight at 37° C. Fresh aliquots of cation supplemented media were inoculated with single bacterial colonies and the cultures were grown overnight at 37° C. with shaking (240 rpm). […] The cultures were then diluted into fresh media to achieve final OD600 readings of 0.017. […] A second set of baseline control plates were prepared analogously, but without any bacteria added, to correct for possible compound absorbance and/or precipitation. […] Plates were then read at 600 nm using a Molecular Devices SpectraMax Plus384 microplate reader. […]
Evaluating analogs for inhibiting the growth of E. coli and the ESKAPE bacteria. […] After addition of compounds to cultures, the plates were sealed with Breathe-Easy gas permeable membranes and allowed to grow to mid-log phase (OD600˜0.4-0.6), whereupon final OD600 readings were taken to assess for bacterial growth and inhibition.

A short description of series [6]: in vitro. To be noted: human. How it is done:
as §1

Series [7] in a line: in vitro. As to conditions: human. As for the experimental part: as §1
The source holds these as a separate data set.

Series [8] concerns nifuroxazide resistant E. coli. The series is classed as cell-based, Escherichia coli.
For series [9], the system named is compound 17 resistant E. coli.
Series [10] has as its system NEB 5-alpha E. coli. Briefly: microbe, parasite or virus in culture. The series is classed as cell-based, Escherichia coli. As for the experimental part: Evaluating the ability of E. coli to generate resistance to lead inhibitors. […] NEB 5-alpha E. coli bacteria were streaked onto an LB agar plate and grown overnight at 37° C. […] The overnight cultures were then sub-cultured (10× dilution) into fresh media solutions and grown at 37° C. to mid-log phase, then diluted into fresh media to achieve two separate cultures with final OD600 readings of 0.01. […] Test compounds were evaluated in duplicate with concentration ranges during the resistance assay from 100 μM to 48.8 nM, 2-fold dilution series. […] OD600 readings were taken at the 24 h time point to monitor for bacterial growth. A second baseline control plate was prepared analogously, without any bacteria added, to correct for possible compound absorbance and/or precipitation. For inoculations on subsequent days, bacteria from the wells with the highest test compound concentration where the OD600 was >0.2, were sub-cultured in 5 mL of fresh media at 37° C. until mid-log phase growth was reached. Separate cultures were maintained from this point forward for each of the compound replicates—i.e. 6 cultures continually propagated. The bacteria were then diluted into fresh media to OD600 of 0.01 and the bacteria were propagated again as described above.

The mark [11] stands for this setting: E. coli and the ESKAPE pathogens.

Where only a bound is given, the exact number is not on record here.

Take `O=C(N/N=C/c1ccc([N+](=O)[O-])o1)c1ccncc1` [Compound 19, N′-((5-nitrofuran-2-yl)methylene)isonicotinohydrazide]: the “SI (CC50/EC50) Intestine” value in series [1] amounted to 38. Moreover, the CC50 in [1] stood at 90 µM; in [3], 61 µM. For the same compound, the EC50 in [2] was determined as 9.5 µM; in series [4], 13 µM. Also, the “SI (CC50/EC50) Colon” value in series [3] was 26.
Consider `O=Cc1ccc(O)c2ncccc12` [Compound 40, reference compound], for which the “antibacterial efficacy in words” value in series [5] (setting [11]) is recorded as “potent inhibitors of nearly all the bacteria (excluding P. aeruginosa)”. Also, the EC50 came to 19 µM in series [2] and 7.3 µM in series [4].
As to `O=Cc1ccc([N+](=O)[O-])o1` [Compound 41, reference compound], in series [5] (setting [11]), the “antibacterial efficacy in words” value is listed as “potent inhibitors of nearly all the bacteria (excluding P. aeruginosa)”. Moreover, the EC50 in [2] was 5.8 µM; in [4], 20 µM.
Turning to `O=C1CN(/N=C/c2ccc(O)c3ncccc23)C(=O)N1` [Compound 2, 1-(((8-hydroxyquinolin-5-yl)methylene)amino)imidazolidine-2,4-dione], the CC50 at 48 h in series [6] and in series [7] was > 100 µM each time. Also, the EC50 is 37 µM in series [2] and > 100 µM in series [4].
With `O=C(N/N=C/c1ccc([N+](=O)[O-])o1)c1cccs1` [Compound 16, N′-((5-nitrofuran-2-yl)methylene)thiophene-2-carbohydrazide], in series [1], the “SI (CC50/EC50) Intestine” value stood at 168, the “cytotoxicity to human cells in words” value is “low to no cytotoxicity” and the CC50 was 71 µM. In series [2], the EC50 was 7.1 µM. In [3], the “SI (CC50/EC50) Colon” value was found to be 198 and the CC50 turned out to be 83 µM. For the same compound, the EC50 in series [4] was 24 µM.
In the case of `O=C(N/N=C/c1cccc2ncccc12)c1ccccc1` [Compound 32, N′-(quinolin-5-ylmethylene)benzohydrazide], the CC50 at 48 h in series [6] and in series [7] was > 100 µM throughout. For the same compound, the EC50 in series [2] and in [4] was > 100 µM throughout.
As to `COc1ccc(C(=O)N/N=C/c2ccco2)cc1` [Compound 39, N′-(furan-2-ylmethylene)-4-methoxybenzohydrazide], the CC50 at 48 h in series [6] and in series [7] was > 100 µM each time. For the same compound, the EC50 in series [2] and in series [4] was > 100 µM in each case.
Consider `COc1ccc(C(=O)N/N=C/c2cccc3ncccc23)cc1` [Compound 31, 4-methoxy-N′-(quinolin-5-ylmethylene)benzohydrazide], for which the CC50 at 48 h in series [6] and in [7] was > 100 µM throughout. In addition, the EC50 in series [2] and in series [4] was > 100 µM each time.
As to `CCN(CC)S(=O)(=O)c1cccc(C(=O)N/N=C/c2ccc([N+](=O)[O-])o2)c1` [Compound 25, N,N-diethyl-3-(2-((5-nitrofuran-2-yl)methylene)hydrazine-1-carbonyl)benzenesulfonamide], the CC50 at 48 h in series [6] and in series [7] was > 100 µM in each case. Besides, the figures for the EC50 in series [2] and in series [4] were 9.6 µM and > 100 µM, respectively.
On to `O=C(N/N=C/c1ccc([N+](=O)[O-])o1)c1ccccc1` [Compound 18, N′-((5-nitrofuran-2-yl)methylene)benzohydrazide], for which, in [1], the “SI (CC50/EC50) Intestine” value is given as 45 and the CC50 was 94 µM. For the same compound, the EC50 in series [2] is 10 µM. For the same compound, in series [3], the “SI (CC50/EC50) Colon” value is given as >48 and the CC50 is > 100 µM. Besides, the EC50 in series [4] was 31 µM.
With `O=C(N/N=C/c1ccc(O)c2ncccc12)c1ccc(O)cc1` [Compound 7, 4-hydroxy-N′-((8-hydroxyquinolin-5-yl)methylene)benzohydrazide], the CC50 at 48 h in [6] is 67 µM; in series [7] it was > 100 µM. For the same compound, the EC50 in series [2] was 48 µM; in series [4], > 100 µM.
Consider `COc1ccc(C(=O)N/N=C/c2ccc([N+](=O)[O-])o2)cc1` [Compound 20, 4-methoxy-N′-((5-nitrofuran-2-yl)methylene)benzohydrazide], for which, in series [1], the “SI (CC50/EC50) Intestine” value was 40, the “cytotoxicity to human cells in words” value was “low to no cytotoxicity” and the CC50 was found to be 75 µM. In addition, the EC50 in series [2] stood at 8.1 µM. In series [3], the “SI (CC50/EC50) Colon” value is given as >53 and the CC50 is > 100 µM. Further, the EC50 in series [4] was 22 µM.
For the compound `CCOc1ccc(S(=O)(=O)Nc2ccc(C(=O)N/N=C/c3ccc([N+](=O)[O-])o3)cc2)cc1` [Compound 28, 4-ethoxy-N-(4-(2-((5-nitrofuran-2-yl)methylene)hydrazine-1-carbonyl)phenyl)benzenesulfonamide], the CC50 at 48 h in series [6] was > 100 µM; in [7], 85 µM. Also, the EC50 in series [2] and in series [4] was > 100 µM each time.
In the case of `O=C1CN(/N=C/c2ccc([N+](=O)[O-])o2)C(=O)N1` [Nitrofurantoin, reference compound], in series [1], the “cytotoxicity to human cells in words” value is listed as “low to no cytotoxicity”. For the same compound, in series [1] (CC50 intestine cells over EC50 E. coli proliferation), the “SI (CC50/EC50) Intestine” value is on record as >146. The CC50 in [1] and in series [3] was > 100 µM each time. In addition, the EC50 in series [2] was 27 µM; in series [10] (Escherichia coli, read-out: EC50 plateau after intermediate resistance), 20 to 40 µM; in series [4] it was 38 µM. Moreover, the “response of nifuroxazide-resistant strains to the other inhibitor” value in series [8] is on record as “cross-resistant”. Also, in [9], the “17-resistant strains susceptible to the other inhibitor” value is given as “not”. For the same compound, the “SI (CC50/EC50) Colon” value in series [3] (CC50 colon cells over EC50 E. coli proliferation) is recorded as >146. Further, the “resistance of the maximally-resistant strain to its inhibitor after passaging without compound” value in series [10] (4×12 h serial passages without test compounds, then 24 h proliferation assay) is “still resistant”.
Take `O=C(N/N=C/c1cccc2ccccc12)c1ccccc1` [Compound 34, N′-(naphthalen-1-ylmethylene)benzohydrazide]: the CC50 at 48 h in [6] and in [7] was > 100 µM throughout. The EC50 in series [2] and in series [4] was > 100 µM throughout.
As to `CN(C)c1ccc(C(=O)N/N=C/c2ccc([N+](=O)[O-])o2)cc1` [Compound 21, 4-(dimethylamino)-N′-((5-nitrofuran-2-yl)methylene)benzohydrazide], in series [1], the “SI (CC50/EC50) Intestine” value is recorded as 9.3 and the CC50 is 93 µM. Moreover, the “antibacterial efficacy in words” value in series [5] (Gram-positive E. faecium and S. aureus) is “less effective (or inactive)”. Besides, the EC50 in series [2] was found to be 34 µM. For the same compound, in series [3], the “SI (CC50/EC50) Colon” value is listed as >10 and the CC50 was > 100 µM. The EC50 in series [4] was > 100 µM.
